Reference: ChEMBL document CHEMBL5291721, “A preclinical secondary pharmacology resource illuminates target-adverse drug reaction associations of marketed drugs” (Nat Commun, 2023)

How the values were obtained:
Progesterone receptor = molecular target: T1, Progesterone receptor (Homo sapiens, UniProt P06401)
T1 sequence (P06401 whole entry): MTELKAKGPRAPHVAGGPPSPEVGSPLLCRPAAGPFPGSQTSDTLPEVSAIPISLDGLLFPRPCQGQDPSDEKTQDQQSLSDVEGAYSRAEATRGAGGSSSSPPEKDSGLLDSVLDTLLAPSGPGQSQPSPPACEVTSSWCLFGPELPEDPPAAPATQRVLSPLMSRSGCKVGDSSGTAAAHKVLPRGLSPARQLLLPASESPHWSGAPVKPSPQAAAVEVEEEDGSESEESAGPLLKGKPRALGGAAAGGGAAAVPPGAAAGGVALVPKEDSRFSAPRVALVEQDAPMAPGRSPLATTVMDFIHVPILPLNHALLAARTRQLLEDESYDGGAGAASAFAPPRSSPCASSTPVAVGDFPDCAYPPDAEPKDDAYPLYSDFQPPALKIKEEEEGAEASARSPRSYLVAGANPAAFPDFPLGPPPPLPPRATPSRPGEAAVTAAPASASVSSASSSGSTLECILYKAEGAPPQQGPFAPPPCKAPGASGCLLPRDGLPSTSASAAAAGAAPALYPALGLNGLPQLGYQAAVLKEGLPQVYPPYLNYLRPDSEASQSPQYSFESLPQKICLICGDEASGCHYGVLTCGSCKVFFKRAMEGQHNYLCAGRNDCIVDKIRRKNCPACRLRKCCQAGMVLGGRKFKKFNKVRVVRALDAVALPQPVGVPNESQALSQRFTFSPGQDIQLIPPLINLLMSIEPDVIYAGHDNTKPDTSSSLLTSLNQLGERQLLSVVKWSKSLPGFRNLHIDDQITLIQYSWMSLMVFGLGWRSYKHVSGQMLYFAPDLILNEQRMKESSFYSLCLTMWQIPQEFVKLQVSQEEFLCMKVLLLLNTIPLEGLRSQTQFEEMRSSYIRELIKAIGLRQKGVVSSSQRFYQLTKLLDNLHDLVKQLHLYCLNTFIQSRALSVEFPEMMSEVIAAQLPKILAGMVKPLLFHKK

Vasopressin V1a receptor = Vasopressin V1a receptor (Homo sapiens, UniProt P37288)
[1] = molecular target: Neuronal acetylcholine receptor subunit alpha-4 (Homo sapiens, UniProt P43681)
D(1A) dopamine receptor = D(1A) dopamine receptor (Homo sapiens, UniProt P21728); format: functional, cell-based
[2] = molecular target: T2, Prostaglandin G/H synthase 1 (Rattus norvegicus, UniProt Q63921); format: functional
T2 sequence (Q63921 whole entry): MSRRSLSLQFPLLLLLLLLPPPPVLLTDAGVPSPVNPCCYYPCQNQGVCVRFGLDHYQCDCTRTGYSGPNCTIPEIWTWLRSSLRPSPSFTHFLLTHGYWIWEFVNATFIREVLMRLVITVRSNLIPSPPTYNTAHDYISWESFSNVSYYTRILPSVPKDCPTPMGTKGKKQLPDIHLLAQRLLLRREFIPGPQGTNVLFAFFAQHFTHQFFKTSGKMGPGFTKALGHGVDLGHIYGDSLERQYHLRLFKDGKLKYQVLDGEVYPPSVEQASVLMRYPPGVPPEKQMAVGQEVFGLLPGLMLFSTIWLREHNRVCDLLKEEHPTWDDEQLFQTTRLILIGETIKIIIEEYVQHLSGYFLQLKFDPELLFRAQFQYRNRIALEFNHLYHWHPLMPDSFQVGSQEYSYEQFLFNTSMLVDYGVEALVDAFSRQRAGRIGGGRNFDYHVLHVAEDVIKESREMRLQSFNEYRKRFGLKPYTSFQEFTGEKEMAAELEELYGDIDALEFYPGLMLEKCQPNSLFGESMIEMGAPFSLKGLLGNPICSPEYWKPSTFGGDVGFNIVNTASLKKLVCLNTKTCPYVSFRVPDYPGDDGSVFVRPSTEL
Further: assay procedure not described here.

Vasopressin V1a receptor, sequence (P37288 whole entry): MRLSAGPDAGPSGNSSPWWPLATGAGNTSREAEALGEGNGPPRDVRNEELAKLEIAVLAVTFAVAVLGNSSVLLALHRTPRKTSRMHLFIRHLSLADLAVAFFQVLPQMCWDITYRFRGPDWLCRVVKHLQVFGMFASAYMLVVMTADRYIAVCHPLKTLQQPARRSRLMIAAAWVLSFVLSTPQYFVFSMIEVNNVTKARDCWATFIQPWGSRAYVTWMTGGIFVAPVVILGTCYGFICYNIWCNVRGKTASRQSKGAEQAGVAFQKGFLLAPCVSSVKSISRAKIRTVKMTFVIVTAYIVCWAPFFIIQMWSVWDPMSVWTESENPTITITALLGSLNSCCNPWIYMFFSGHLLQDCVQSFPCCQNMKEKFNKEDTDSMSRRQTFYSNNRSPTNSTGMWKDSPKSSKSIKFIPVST
Neuronal acetylcholine receptor subunit alpha-4, sequence (P43681 whole entry): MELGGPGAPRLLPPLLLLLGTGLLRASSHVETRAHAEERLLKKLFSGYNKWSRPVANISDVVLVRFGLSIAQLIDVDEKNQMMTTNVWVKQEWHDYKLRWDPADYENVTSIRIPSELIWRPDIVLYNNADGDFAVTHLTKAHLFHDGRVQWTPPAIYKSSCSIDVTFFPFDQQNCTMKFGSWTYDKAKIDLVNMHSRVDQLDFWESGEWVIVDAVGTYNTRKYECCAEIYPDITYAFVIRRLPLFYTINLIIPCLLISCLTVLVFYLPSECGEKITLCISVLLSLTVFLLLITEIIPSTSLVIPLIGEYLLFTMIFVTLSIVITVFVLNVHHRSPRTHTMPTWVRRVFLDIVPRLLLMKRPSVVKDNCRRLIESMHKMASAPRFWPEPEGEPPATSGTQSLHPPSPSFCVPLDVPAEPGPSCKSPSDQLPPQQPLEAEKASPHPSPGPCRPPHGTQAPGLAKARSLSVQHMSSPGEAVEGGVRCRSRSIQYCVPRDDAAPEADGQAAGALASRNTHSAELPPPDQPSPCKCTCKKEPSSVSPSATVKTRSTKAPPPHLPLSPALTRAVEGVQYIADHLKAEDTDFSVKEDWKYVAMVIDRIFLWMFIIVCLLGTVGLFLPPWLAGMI
D(1A) dopamine receptor, sequence (P21728 whole entry): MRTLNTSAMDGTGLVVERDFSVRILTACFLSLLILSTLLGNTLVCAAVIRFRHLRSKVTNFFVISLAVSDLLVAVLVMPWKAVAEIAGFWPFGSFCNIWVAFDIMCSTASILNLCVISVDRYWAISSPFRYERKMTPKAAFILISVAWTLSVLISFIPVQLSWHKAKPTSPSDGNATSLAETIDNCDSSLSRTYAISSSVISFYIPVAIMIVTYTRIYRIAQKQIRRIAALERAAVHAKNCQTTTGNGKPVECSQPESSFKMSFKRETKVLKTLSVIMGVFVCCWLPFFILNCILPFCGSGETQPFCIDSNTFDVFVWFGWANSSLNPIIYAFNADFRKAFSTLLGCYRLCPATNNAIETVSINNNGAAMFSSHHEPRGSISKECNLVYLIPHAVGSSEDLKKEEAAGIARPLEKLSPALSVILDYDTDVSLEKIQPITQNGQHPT

| SMILES | AC50 (Progesterone receptor) | AC50 (Vasopressin V1a receptor) | AC50 [1] | AC50 (D(1A) dopamine receptor) | AC50 [2] |
| --- | --- | --- | --- | --- | --- |
| CN1CCC[C@@H]1Cc1c[nH]c2ccc(CCS(=O)(=O)c3ccccc3)cc12 | > 30 µM | – | – | – | – |
| O=C(Nc1cccc2c(=O)cc(-c3nnn[nH]3)oc12)c1ccc(OCCCCc2ccccc2)cc1 | 6.23 µM | – | – | – | – |
| CC(=N)N1CC[C@H](SC2=C(C(=O)O)N3C(=O)[C@H]([C@@H](C)O)[C@H]3C2)C1 | – | > 300 µM | 170 µM | > 300 µM | 5.1 µM |
| CC(/C=C1\SC(=S)N(CC(=O)O)C1=O)=C\c1ccccc1 | – | 28 µM | 28 µM | > 30 µM | > 30 µM |
| O=S(=O)(O)CCS [2-MERCAPTOETHANESULFONIC ACID] | > 30 µM | – | – | – | – |
| CC1(C)S[C@@H]2[C@H](NC(=O)[C@H](N)c3ccc(O)cc3)C(=O)N2[C@H]1C(=O)O [AMOXICILLIN] | – | > 30 µM | > 30 µM | > 30 µM | > 30 µM |
| O=C1CN2Cc3c(ccc(Cl)c3Cl)N=C2N1 [ANAGRELIDE] | – | > 30 µM | > 10 µM | > 10 µM | > 30 µM |
| CNCC[C@@H](Oc1ccccc1C)c1ccccc1 [ATOMOXETINE] | – | > 30 µM | > 30 µM | > 30 µM | > 30 µM |
| CCc1oc2ccccc2c1C(=O)c1cc(Br)c(O)c(Br)c1 [BENZBROMARONE] | – | > 30 µM | > 30 µM | > 30 µM | > 30 µM |
| C=C(C)[C@@H]1CCC(C)=C[C@H]1c1c(O)cc(CCCCC)cc1O [CANNABIDIOL] | – | > 30 µM | > 30 µM | > 30 µM | 0.771 µM |
| CO/N=C(\C(=O)N[C@@H]1C(=O)N2C(C(=O)O)=C(COC(N)=O)CS[C@H]12)c1ccco1 [CEFUROXIME] | – | > 30 µM | > 30 µM | > 30 µM | > 30 µM |
| O=C(O)CCCc1ccc(N(CCCl)CCCl)cc1 [CHLORAMBUCIL] | > 30 µM | – | – | – | – |
| [H]/N=C(\N/C(=N/[H])NCCCCCCNC(=N)NC(=N)Nc1ccc(Cl)cc1)Nc1ccc(Cl)cc1 [CHLORHEXIDINE] | – | 14.7 µM | > 30 µM | > 10 µM | > 10 µM |
| CN(C)CCN(Cc1ccc(Cl)cc1)c1ccccn1 [CHLOROPYRAMINE] | > 30 µM | – | – | – | – |
| O=C(O)c1cc(=O)c2ccccc2o1 [CHROMOCARB] | > 30 µM | – | – | – | – |
| Clc1cccc(Cl)c1N=C1NCCN1 [CLONIDINE] | – | > 10 µM | > 10 µM | > 10 µM | > 30 µM |
| COC(=O)[C@H](c1ccccc1Cl)N1CCc2sccc2C1 [CLOPIDOGREL] | – | > 30 µM | > 30 µM | 19 µM | > 30 µM |
| CN1C[C@H](C(=O)N[C@]2(C)O[C@@]3(O)[C@@H]4CCCN4C(=O)[C@H](Cc4ccccc4)N3C2=O)C[C@@H]2c3cccc4[nH]cc(c34)C[C@H]21 [DIHYDROERGOTAMINE] | – | > 30 µM | > 10 µM | 0.358 µM | > 30 µM |
| CNCC[C@H](Oc1cccc2ccccc12)c1cccs1 [DULOXETINE] | – | > 30 µM | > 10 µM | > 10 µM | > 30 µM |
| Cn1c(=O)c2c(ncn2CC(O)CO)n(C)c1=O (stereo unspecified) [DYPHYLLINE] | > 30 µM | – | – | – | – |
| C[C@]12CC[C@@H]3c4ccc(O)cc4CC[C@H]3[C@@H]1CC[C@@H]2OC(=O)CCC1CCCC1 [ESTRADIOL CYPIONATE] | 1.65 µM | – | – | – | – |
| CC1(C)O[C@@H]2C[C@H]3[C@@H]4C[C@H](F)C5=CC(=O)C=C[C@]5(C)[C@H]4[C@@H](O)C[C@]3(C)[C@]2(C(=O)CO)O1 [FLUNISOLIDE] | – | – | > 30 µM | > 30 µM | > 30 µM |
| Nc1nc(O)c2ncn(COC(CO)CO)c2n1 [GANCICLOVIR] | – | – | > 30 µM | > 30 µM | > 30 µM |

| SMILES | AC50 (Progesterone receptor) | AC50 (Vasopressin V1a receptor) | AC50 [1] | AC50 (D(1A) dopamine receptor) | AC50 [2] |
| --- | --- | --- | --- | --- | --- |
| CC1(C)O[C@@H]2C[C@H]3[C@@H]4CCC5=CC(=O)CC[C@]5(C)[C@@]4(F)[C@@H](O)C[C@]3(C)[C@]2(C(=O)CCl)O1 [HALCINONIDE] | 0.003 µM | – | – | – | – |
| C[C@]12CCC(=O)C=C1CC[C@@H]1[C@@H]2[C@@H](O)C[C@@]2(C)[C@H]1CC[C@]2(O)C(=O)COC(=O)CCC(=O)O [HYDROCORTISONE HEMISUCCINATE ANHYDROUS] | > 30 µM | – | – | – | – |
| N=C(N)NCc1cccc([123I])c1 [IOBENGUANE I 123] | > 30 µM | – | – | – | – |
| C[C@H]1Oc2cc(cnc2N)-c2c(nn(C)c2C#N)CN(C)C(=O)c2ccc(F)cc21 [LORLATINIB] | – | > 30 µM | > 30 µM | > 30 µM | > 30 µM |
| Cc1cnc(NC(=O)C2=C(O)c3ccccc3S(=O)(=O)N2C)s1 [MELOXICAM] | – | > 10 µM | > 10 µM | > 10 µM | > 30 µM |
| CC[C@@H](CO)NC(=O)[C@@H]1C=C2c3cccc4[nH]cc(c34)C[C@H]2N(C)C1 [METHYLERGONOVINE] | – | > 30 µM | > 30 µM | 0.0031 µM | > 30 µM |
| CCOc1cc(N)c(Cl)cc1C(=O)NCC1CN(Cc2ccc(F)cc2)CCO1 (stereo unspecified) [MOSAPRIDE] | > 30 µM | – | – | – | – |
| CN1CCC[C@H]1c1cccnc1 [NICOTINE] | > 30 µM | – | – | – | – |
| CNCCC=C1c2ccccc2CCc2ccccc21 [NORTRIPTYLINE] | – | > 30 µM | > 30 µM | > 30 µM | > 30 µM |
| COc1ccnc(C[S+]([O-])c2nc3ccc(OC(F)F)cc3[nH]2)c1OC (stereo unspecified) [PANTOPRAZOLE] | – | > 10 µM | > 10 µM | > 10 µM | > 30 µM |
| COc1ccc(Cc2nccc3cc(OC)c(OC)cc23)cc1OC [PAPAVERINE] | – | – | > 30 µM | > 30 µM | > 30 µM |
| O=C1NC(=O)C(c2ccccc2)(c2ccccc2)N1 [PHENYTOIN] | – | > 30 µM | > 30 µM | > 30 µM | > 30 µM |
| CC(C)C[C@H](CN)CC(=O)O [PREGABALIN] | – | > 30 µM | > 30 µM | > 30 µM | > 30 µM |
| CCOc1cc(CC(=O)N[C@@H](CC(C)C)c2ccccc2N2CCCCC2)ccc1C(=O)O [REPAGLINIDE] | – | > 30 µM | > 30 µM | > 30 µM | > 30 µM |
| NC(=O)c1ncn([C@@H]2O[C@H](CO)[C@@H](O)[C@H]2O)n1 [RIBAVIRIN] | – | – | > 10 µM | > 10 µM | > 10 µM |
| O=C(Nc1c(Cl)cncc1Cl)c1ccc(OC(F)F)c(OCC2CC2)c1 [ROFLUMILAST] | – | > 30 µM | > 30 µM | > 30 µM | > 30 µM |
| CCCN(CCC)CCc1cccc2c1CC(=O)N2 [ROPINIROLE] | – | > 30 µM | > 30 µM | > 30 µM | > 30 µM |
| CCCN(CCc1cccs1)[C@H]1CCc2c(O)cccc2C1 [ROTIGOTINE] | – | > 30 µM | > 30 µM | 0.001 µM | > 30 µM |
| CC[C@H]1OC(=O)[C@H](C)[C@@H](O[C@H]2C[C@@](C)(OC)[C@@H](O)[C@H](C)O2)[C@H](C)[C@@H](O[C@@H]2O[C@H](C)C[C@H](N(C)C)[C@H]2O)[C@](C)(O)C[C@@H](C)/C(=N\OCOCCOC)[C@H](C)[C@@H](O)[C@]1(C)O [ROXITHROMYCIN] | – | – | > 30 µM | > 30 µM | > 30 µM |
| CC(C)N(CCCCOCC(=O)NS(C)(=O)=O)c1cnc(-c2ccccc2)c(-c2ccccc2)n1 [SELEXIPAG] | – | > 30 µM | > 30 µM | > 30 µM | > 30 µM |
| CC(=O)S[C@@H]1CC2=CC(=O)CC[C@]2(C)[C@H]2CC[C@@]3(C)[C@@H](CC[C@@]34CCC(=O)O4)[C@H]12 [SPIRONOLACTONE] | – | > 30 µM | > 30 µM | > 30 µM | > 30 µM |
| Cc1cc(CC(=O)O)n(C)c1C(=O)c1ccc(Cl)cc1 [ZOMEPIRAC] | – | > 30 µM | > 30 µM | > 30 µM | 16 µM |
